Test [1] relates to Colo205 tumor cell lines. The test is described as follows: Methylene blue growth inhibition assay (cellular Method A). The note with it: Homo sapiens, COLO 205, 72 h, Table 3, Method A methylene blue, 3 days. Type of test: cell-based. As for the experimental part: (§1) Human breast (BT474) and head and neck (HN5) were cultured in low glucose DMEM (Life Technologies 12320-032) containing 10% fetal bovine serum (FBS). Human colon tumor cells (Colo205) were cultured in DMEM (Invitrogen, 10564) containing 10% FBS. The SV40 transformed human mammary epithelial cell line to HB4a was transfected with either human H-ras cDNA (HB4a r4.2) or the human c-ErbB2 cDNA (HB4a c5.2). The HB4a clones were cultured in RPMI containing 10% FBS, insulin ([…]), hydrocortisone ([…]), supplemented with the selection agent hygromycin B ([…]). All lines were grown in a humidified incubator at 37° C. in 95% air, 5% CO2. Cells were harvested using trypsin/EDTA, counted using a haemocytometer, and plated in 100 microliters of the appropriate media, at the following densities, in a 96-well tissue culture plate (Falcon 3075): BT474 10,000 cells/well, HN5 3,000 cells/well. The next day, compounds were diluted in DMEM containing […] gentamicin, at twice the final required concentration, from 10 mM stock solutions in DMSO. 100 microliters/well of these dilutions were added to the 100 microliters of media currently on the cell plates. Medium containing 0.6% DMSO was added to control wells. Compounds diluted in DMEM were added to all cell lines. The final concentration of DMSO in all wells was 0.3%. Cells were returned to the incubator (37° C., […]) for 3 days. Medium was then removed by aspiration. Cell biomass was estimated by staining cells with 90 microliters per well methylene blue (Sigma M9140, 0.5% in 1:1 ethanol:water), and incubation at rt for at least 30 minutes. Stain was removed, and the plates rinsed by immersion in deionized water and air-dried. To release stain from the cells 100 microliters of solubilization solution was added (1% N-lauroyl sarcosine, Sodium salt, Sigma L5125, in PBS), and plates were shaken gently for about 30 minutes. Optical density at 620 nm was measured on a microplate reader. Percent inhibition of cell growth was calculated relative to vehicle treated control wells. Concentration of compound that inhibits 50% of control cell growth (IC50) was interpolated using nonlinear regression (Levenberg-Marquardt) and the equation, y=Vmax*(1−(x/(K+x)))+Y2, where “K” was equal to the IC50. Method B: Celltiter Glo® Growth Inhibition Assays

For test [2], the system named is BT474 and HN5 tumor cell lines. Described as above. The class given is cell-based. The note with it: Homo sapiens, BT-474 and HN5, 72 h; Table 2, Method A methylene blue, 3 days; class over BT474 and HN5. Here is the method: as §1
In test [3] the target is T1, ErbB2 or EGFR.
T1 construct: enzymes purified from a baculovirus expression system
The test is described as follows: ErbB enzyme substrate phosphorylation assay (HTRF), Method B (enzyme pre-incubated with compound 1 hour). Type of test: biochemical. The note with it: Table 1, enzyme Method B: enzyme mix incubated with compound 1 hour at 20° C., reaction started with substrate mix; class over ErbB2 or EGFR. In outline:
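Baculovirus-expressed kinase (0.8 nM EGFR or 10 nM ErbB2 in enzyme mix) phosphorylated biotinylated Peptide C (0.8 µM in substrate mix) with 20 µM ATP in substrate mix, MOPS pH 7.5, MnCl2, 90 min at 20 °C. Method A started with enzyme; Method B pre-incubated enzyme with compound 1 h at 20 °C. HTRF read-out; IC50 from 12-point curve (0.00027–47.6 µM), reported as pIC50.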
(TR-FRET usually uses a lanthanide donor and a delayed reading to cut background.)

Test [4] concerns Colo205 tumor cell lines. Briefly: Celltiter Glo growth inhibition assay (cellular Method B). The class given is cell-based. The note with it: Homo sapiens, COLO 205, 72 h, Table 3, Method B Celltiter Glo, 3 days. In outline:
(§2)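 BT474, HN5 and Colo205 cells were each grown in their own 10% FBS medium, then exposed to compound for 3 days at 37 °C with 0.3% final DMSO. Growth was read by CellTiter-Glo luminescence as percent inhibition versus vehicle, and IC50 was interpolated by nonlinear regression.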

For test [5], the system named is BT474 and HN5 tumor cell lines. The test is described as above. Type of test: cell-based. The note with it: Homo sapiens, BT-474, 72 h; Table 2, Method B Celltiter Glo, 3 days; class over BT474 and HN5. In outline: as §2
On the technique in general: ATP-based viability assays read luminescence as a measure of living cells.

Bounds are passed on as bounds.

For orientation: IC50 means the midpoint of a concentration-inhibition curve. The low end stands for inhibition by little substance, the high end for a need for much substance. Regarding `O=C(Cc1cccs1)Nc1cccc(-c2nn3ccccc3c2-c2ccnc(Nc3cccc(-c4cnco4)c3)n2)c1` [Example 1, N-{3-[3-(2-{[3-(1,3-oxazol-5-yl)phenyl]amino}-4-pyrimidinyl)pyrazolo[1,5-a]pyridin-2-yl]phenyl}-2-(2-thienyl)acetamide], the IC50 in test [1] and in test [2] was 100 to 1000 nM each time. Besides, the “Activity (Method)” value in test [3] is recorded as “+++ (B) (at least one pIC50 measurement of greater than 7 against either ErbB2 or EGFR)”.
Turning to `CN(C)CCCNc1ccc(Nc2nccc(-c3c(-c4cccc(NC(=O)Cc5cccs5)c4)nn4ccccc34)n2)cc1F` [Example 2, N-[3-(3-{2-[(4-{[3-(Dimethylamino)propyl]amino}-3-fluorophenyl)amino]-4-pyrimidinyl}pyrazolo[1,5-a]pyridin-2-yl)phenyl]-2-(2-thienyl)acetamide], the IC50 in test [1] was 100 to 1000 nM; in test [2], below 100 nM. Moreover, in test [3], the “Activity (Method)” value was “+++ (B) (at least one pIC50 measurement of greater than 7 against either ErbB2 or EGFR)”.
Turning to `O=C(Cc1cccs1)Nc1cccc(-c2nn3ccccc3c2-c2ccnc(Nc3cccc(F)c3)n2)c1` [Example 9, N-[3-(3-{2-[(3-Fluorophenyl)amino]-4-pyrimidinyl}pyrazolo[1,5-a]pyridin-2-yl)phenyl]-2-(2-thienyl)acetamide], the IC50 in test [1] and in test [2] was above 1000 nM throughout. For the same compound, the “Activity (Method)” value in test [3] is listed as “+++ (B) (at least one pIC50 measurement of greater than 7 against either ErbB2 or EGFR)”.
With `O=C(Cc1cccs1)Nc1cccc(-c2nn3ccccc3c2-c2ccnc(Nc3cccc(OCCN4CCCC4)c3)n2)c1` [Example 10, N-[3-(3-{2-[(3-{[2-(1-Pyrrolidinyl)ethyl]oxy}phenyl)amino]-4-pyrimidinyl}pyrazolo[1,5-a]pyridin-2-yl)phenyl]-2-(2-thienyl)acetamide], the IC50 in test [1] and in test [2] was 100 to 1000 nM each time. Moreover, the “Activity (Method)” value in test [3] was “+++ (B) (at least one pIC50 measurement of greater than 7 against either ErbB2 or EGFR)”.
Consider `O=C(Cc1cccs1)Nc1cccc(-c2nn3ccccc3c2-c2ccnc(Nc3cccc(OCCCN4CCOCC4)c3)n2)c1` [Example 11, N-[3-(3-{2-[3-{[3-(4-Morpholinyl)propyl]oxy}phenylamino]-4-pyrimidinyl}pyrazolo[1,5-a]pyridin-2-yl)phenyl]-2-(2-thienyl)acetamide], for which the IC50 in test [1] and in test [2] was 100 to 1000 nM in each case. In addition, the “Activity (Method)” value in test [3] is “+++ (B) (at least one pIC50 measurement of greater than 7 against either ErbB2 or EGFR)”.
Take `CN(C)CCCOc1cccc(Nc2nccc(-c3c(-c4cccc(NC(=O)Cc5cccs5)c4)nn4ccccc34)n2)c1` [Example 12, N-[3-(3-{2-[(3-{[3-(Dimethylamino)propyl]oxy}phenyl)-amino]-4-pyrimidinyl}pyrazolo[1,5-a]pyridin-2-yl)phenyl]-2-(2-thienyl)acetamide]: the IC50 in test [1] and in test [2] was 100 to 1000 nM in each case. The “Activity (Method)” value in test [3] is reported as “+++ (B) (at least one pIC50 measurement of greater than 7 against either ErbB2 or EGFR)”.
`O=C(Cc1cccs1)Nc1cccc(-c2nn3ccccc3c2-c2ccnc(Nc3cccc(OCCCN4CCCC4)c3)n2)c1` [Example 13, N-[3-(3-{2-[(3-{[3-(1-Pyrrolidinyl)propyl]oxy}phenyl)amino]-4-pyrimidinyl}pyrazolo[1,5-a]pyridin-2-yl)phenyl]-2-(2-thienyl)acetamide]: the IC50 in test [1] and in test [2] was 100 to 1000 nM in each case. In addition, the “Activity (Method)” value in test [3] is on record as “+++ (B) (at least one pIC50 measurement of greater than 7 against either ErbB2 or EGFR)”.
Take `CN1CCc2ccc(Nc3ncc(F)c(-c4c(-c5cccc(NC(=O)c6c(F)cccc6F)c5)nn5ccccc45)n3)cc2C1` [Example 51, 2,6-Difluoro-N-[3-(3-{5-fluoro-2-[(2-methyl-1,2,3,4-tetrahydro-7-isoquinolinyl)amino]-4-pyrimidinyl}pyrazolo[1,5-a]pyridin-2-yl)phenyl]benzamide]: the IC50 in test [4] and in test [5] was 100 to 1000 nM throughout. The “Activity (Method)” value in test [3] is “+++ (B) (at least one pIC50 measurement of greater than 7 against either ErbB2 or EGFR)”.
Consider `Cc1ccc(-c2nn3ccccc3c2-c2ccnc(Nc3cccc(CN4CCCC4)c3)n2)cc1NC(=O)Cc1cccs1` [Example 56, N-{2-Methyl-5-[3-(2-{[3-(1-pyrrolidinylmethyl)phenyl]amino}-4-pyrimidinyl)pyrazolo[1,5-a]pyridin-2-yl]phenyl}-2-(2-thienyl)acetamide], for which the IC50 in test [4] and in test [5] was above 1000 nM in each case. In addition, in test [3], the “Activity (Method)” value was “++ (B) (at least one pIC50 measurement greater than 6 against either ErbB2 or EGFR but no measurement greater than pIC50 of 7)”.
`Cc1ccc(-c2nn3ccccc3c2-c2ccnc(Nc3cc(OCCN(C)C)ccc3C)n2)cc1NC(=O)Cc1cccs1` [Example 57, N-[5-(3-{2-[(5-{[2-(Dimethylamino)ethyl]oxy}-2-methylphenyl)amino]-4-pyrimidinyl}pyrazolo[1,5-a]pyridin-2-yl)-2-methylphenyl]-2-(2-thienyl)acetamide]: the IC50 in test [4] and in test [5] was above 1000 nM throughout. In addition, the “Activity (Method)” value in test [3] is “++ (B) (at least one pIC50 measurement greater than 6 against either ErbB2 or EGFR but no measurement greater than pIC50 of 7)”.
For the compound `Cc1ccc(-c2nn3ccccc3c2-c2ccnc(Nc3cccc(OCCN(C)C)c3)n2)cc1NC(=O)Cc1cccs1` [Example 58, N-[5-(3-{2-[(3-{[2-(Dimethylamino)ethyl]oxy}phenyl)amino]-4-pyrimidinyl}pyrazolo[1,5-a]pyridin-2-yl)-2-methylphenyl]-2-(2-thienyl)acetamide], the IC50 in test [4] and in test [5] was 100 to 1000 nM in each case. In addition, the “Activity (Method)” value in test [3] is “++ (B) (at least one pIC50 measurement greater than 6 against either ErbB2 or EGFR but no measurement greater than pIC50 of 7)”.
Consider `Cc1ccc(-c2nn3ccccc3c2-c2ccnc(Nc3ccc4c(c3)CN(C)CC4)n2)cc1NC(=O)Cc1cccs1` [Example 59, N-[2-Methyl-5-(3-{2-[(2-methyl-1,2,3,4-tetrahydro-7-isoquinolinyl)amino]-4-pyrimidinyl}pyrazolo[1,5-a]pyridin-2-yl)phenyl]-2-(2-thienyl)acetamide], for which the IC50 in test [4] was above 1000 nM; in test [5] it was 100 to 1000 nM. Besides, the “Activity (Method)” value in test [3] was “++ (B) (at least one pIC50 measurement greater than 6 against either ErbB2 or EGFR but no measurement greater than pIC50 of 7)”.
With `O=C(Cc1cccs1)Nc1cc(-c2nn3ccccc3c2-c2ccnc(Nc3cccc(CN4CCCC4)c3)n2)ccc1F` [Example 61, N-{2-Fluoro-5-[3-(2-{[3-(1-pyrrolidinylmethyl)phenyl]amino}-4-pyrimidinyl)pyrazolo[1,5-a]pyridin-2-yl]phenyl}-2-(2-thienyl)acetamide], the IC50 in test [4] and in test [5] was 100 to 1000 nM throughout. Moreover, the “Activity (Method)” value in test [3] is given as “++ (B) (at least one pIC50 measurement greater than 6 against either ErbB2 or EGFR but no measurement greater than pIC50 of 7)”.
Consider `Cc1ccc(OCCN(C)C)cc1Nc1nccc(-c2c(-c3ccc(F)c(NC(=O)Cc4cccs4)c3)nn3ccccc23)n1` [Example 62, N-[5-(3-{2-[(5-{[2-(Dimethylamino)ethyl]oxy}-2-methylphenyl)amino]-4-pyrimidinyl}pyrazolo[1,5-a]pyridin-2-yl)-2-fluorophenyl]-2-(2-thienyl)acetamide], for which the concentration for half-maximal inhibition (IC50) was 100 to 1000 nM in test [4] and above 1000 nM in test [5]. For the same compound, in test [3], the “Activity (Method)” value was “+ (B) (no pIC50 measurement greater than 6 against either ErbB2 or EGFR)”.

Values taken from patent publication US7807673B2, “2-pyrimidinyl pyrazolopyridine ErbB kinase inhibitors” (GlaxoSmithKline LLC, priority 2005, dated 2010).
